Measurements from patent US12178810B2 (priority 2016, dated 2024).

How the values were obtained:
[1] = test system: Healthy human male volunteers; test: Retrospective analysis of the Phase 1 DDI study: heart rate and blood pressure at rest; type: in vivo
Text: FIG. 2. […] By ‘t’ test—Wilcoxon matched-pairs signed rank test.
(§1) Healthy human male volunteers, 18-50 years of age. A total of 14 subjects were included in the study.
(§2) Two consecutive study periods separated by a washout period of at least three days. The sequence of events was the same for all subjects.
Particularly, the effect of tesofensine-metoprolol on heart rate and blood pressure at rest, was investigated.

healthy male subjects = details: metoprolol alone; cited from earlier work
CYP2D6 = target: T1, CYP2D6 (Homo sapiens, UniProt P10635); test: Phase 1 drug-drug interaction (DDI) study with metoprolol: metoprolol pharmacokinetics without and with tesofensine at steady state; type: in vivo; details: metoprolol 50 mg single dose after 14 days tesofensine vs metoprolol alone
T1 construct: Healthy human male volunteers, 18-50 years of age; A total of 14 subjects were included in the study; from tissue; host or cells: in vivo, healthy human male volunteers (endogenous enzyme)
T1 sequence (P10635 whole entry): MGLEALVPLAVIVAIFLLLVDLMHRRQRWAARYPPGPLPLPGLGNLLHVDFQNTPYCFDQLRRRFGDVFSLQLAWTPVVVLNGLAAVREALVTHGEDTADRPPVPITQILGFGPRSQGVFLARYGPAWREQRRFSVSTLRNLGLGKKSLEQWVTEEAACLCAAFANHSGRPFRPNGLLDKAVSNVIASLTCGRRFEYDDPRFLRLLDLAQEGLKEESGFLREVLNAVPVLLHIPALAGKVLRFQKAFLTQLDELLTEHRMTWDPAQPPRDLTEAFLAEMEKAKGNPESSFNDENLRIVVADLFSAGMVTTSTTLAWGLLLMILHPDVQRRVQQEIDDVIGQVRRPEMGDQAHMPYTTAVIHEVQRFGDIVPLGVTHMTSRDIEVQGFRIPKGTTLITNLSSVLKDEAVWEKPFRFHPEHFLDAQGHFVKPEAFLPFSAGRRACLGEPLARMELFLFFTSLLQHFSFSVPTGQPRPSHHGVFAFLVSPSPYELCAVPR
Text: FIG. 1. PK of metoprolol after a single dosing in absence and presence of tesofensine at steady state.
as §1, §2

obese patients = details: long-term treatment, corrected for placebo and diet effects; cited from earlier work

SMILES | effect on tesofensine-induced increase in heart rate, 7 hours after single metoprolol dose ([1]; day 14, tesofensine treated subjects, 7 hours after metoprolol) | effect on heart rate, ~24 hours after single metoprolol dose ([1]; day 15, tesofensine treated subjects, ~24 hours after metoprolol) | decrease in supine diastolic blood pressure (healthy male subjects) | decrease in supine systolic blood pressure (healthy male subjects) | effect on metoprolol Cmax (CYP2D6) | effect on metoprolol Tmax (CYP2D6) | weight loss (obese patients) | heart rate after 14 days of tesofensine vs prelevel ([1]; tesofensine only, day 14, p<0.01 vs prelevel) | diastolic BP after 14 days of tesofensine treatment ([1]; tesofensine only, vs pre-treatment) | systolic BP after 14 days of tesofensine treatment ([1]; tesofensine only, vs pre-treatment, not significant)
COCCc1ccc(OCC(O)CNC(C)C)cc1 (stereo not shown) [metoprolol, 1-(Isopropylamino)-3-[4-(2-methoxyethyl)-phenoxy]-propan-2-ol] | normalize the tesofensine-induced increase in heart rate | disappeared | about 4 mmHg | about 4 mmHg |  |  |  |  |  | 
CCOC[C@@H]1[C@@H](c2ccc(Cl)c(Cl)c2)C[C@@H]2CC[C@H]1N2C [tesofensine, (1R,2R,3S,5S)-3-(3,4-dichlorophenyl)-2-(ethoxymethyl)-8-methyl-8-azabicyclo[3.2.1]octane] |  |  |  |  | no effect | no effect | about 10% | Increase in heart rate | essentially not altered | increase systolic BP slightly
